Several values for one entry are separate records, joined by “and”; a condition that tells them apart may be missing. Identical values can stand only once. Like-named read-outs stand apart in the source and are kept apart here.
Tests used:
[1] = Metabolic stability in liver microsomes, human; type: in vitro ADME; conditions: for half-life at 1 μM: human, pH 7.4
Protocol: (§1) […]. Samples were taken over the interval of 45 min and analyzed by LC–MS/MS for the presence of test compound. Ketanserin served as an internal standard for the metabolic rate of a drug with known intermediate stability. […].
(§2) The drug was incubated at 37 °C and 1 μM concentration in murine liver microsomes (Corning) for 45 min at a protein concentration of 0.5 mg/mL in potassium phosphate buffer at pH 7.4 containing 1.0 mM EDTA. The metabolic reaction was initiated by addition of NADPH and quenched with ice-cold acetonitrile at 0, 5, 15, 25, and 45 min.

[2] = Metabolic stability in liver microsomes, mouse; type: in vitro ADME; conditions: pooled mouse liver microsomes, pH 7.4; for half-life at 1 μM: mouse liver microsomes 0.5 mg/mL, NADPH, 37 °C, 45 min
Protocol: as §1, §2

[3] = tested on: P. falciparum multidrug-resistant Dd2 strain; experiment: microbe, parasite or virus in culture; type: cell-based; conditions: Plasmodium falciparum, DD2, 72 h, read-out: P. falciparum IC50 values, Dd2
Protocol: (§3) All of this information is stored in a database with information relating to chemical structure, physical chemical properties, cross resistance patterns, mammalian cell cytotoxicity, enzyme inhibitor profiles, and synthesis details. Pharmacological data and in vivo efficacy data are also stored in the database for molecules of particular interest. […] We synthesized the compound in an initial batch size of about 800 mg as described above. […] Fluorescence readings were captured with a fluorescence plate reader and processed by nonlinear regression analysis using the GraphPad Prism software to provide IC50 values for each determination. Stock solutions were freshly prepared daily in DMSO in glass vials.
(§4) Laboratory strains of P. falciparum were cultured in human erythrocytes by standard methods. The parasites were grown in culture medium with fresh human erythrocytes maintained at 2% hematocrit at 37 °C in low-oxygen conditions (5% O2, 5% CO2, 90% N2). […] Cultures were maintained at less than 10% parasitemia by transfer of infected cells to fresh erythrocytes and culture medium every 3 or 4 days.
(§5) SYBR green I assay. In vitro antiplasmodial activity was assessed using a published SYBR Green I fluorescence-based method.[20] The drugs were added to 96-well plates using twofold serial dilutions in complete medium. […] Asynchronous P. falciparum parasites were diluted with uninfected erythrocytes and added to the wells to give a final culture volume of 100 μL at 2% hematocrit and 0.2% parasitemia. […] The parasites were then lysed by adding 100 μL of SYBR green I lysis buffer containing 0.2 μL/ml SYBR green I dye (10,000×) in 20 mM Tris (pH 7.5), 5 mM EDTA, 0.008% (wt/vol) saponin, and 0.08% (v/v) Triton X-100. The plates were incubated at room temperature for an hour in the dark. […] If the IC50 value fell outside of the initially tested range, then the range was adjusted up or down, and the assay was repeated twice.

[4] = HepG2 cytotoxicity / mitochondrial toxicity (TiterGlo ATP, galactose medium); conditions: human
Protocol: HepG2 was routinely cultured in DMEM containing 10% fetal calf serum and 100 IU/mL penicillin and 100 μg/mL streptomycin (complete medium). For studies to investigate the potential for mitochondrial toxicity by selected 3-biaryl-ELQs, the medium contained galactose rather than glucose to force the cells to produce ATP through oxidative phosphorylation, which in turn makes them sensitive to mitochondrial toxicants.[36] […] After this period, the culture medium was removed, and the cells were shifted to galactose-containing medium with test drugs at concentrations ranging from 0 to 10 μM. Drug dilutions were prepared from DMSO stocks into galactose-containing medium. […] After incubation, the contents of each well were removed, and 25 μL of TiterGlo II reagent mix containing luciferase, detergent, and luciferin was added to each well along with 25 μL of culture medium. […] At this point, the plates were read on a luminometer (SpectraMax iD3 iD5Multi-Mode Microplate Reader), and the data were processed to yield the percent decrease in ATP production relative to no-drug control values. These values reflect the potential damage caused by mitochondrial toxicants due to reduced intracellular ATP levels caused by interference with the human mitochondrial electron transport chain. Assays were set up in triplicate.

[5] = tested on: P. yoelii blood-stage infection; conditions: for blood stage in vivo efficacy, 4 day Peters test results, NRD (nonrecrudescence dose) / blood stage in vivo efficacy, 4 day Peters test results, ED50 / blood stage in vivo efficacy, 4 day Peters test results, ED90: mice; for blood stage in vivo efficacy, 4 day Peters test results, NRD (nonrecrudescence dose): oral gavage days 1-4, followed to day 30; for blood stage in vivo efficacy, 4 day Peters test results, ED50 / blood stage in vivo efficacy, 4 day Peters test results, ED90: oral gavage days 1-4, parasitemia day 5, prodrugs dosed on molar equivalency to parent
Protocol: (§6) On day 5, a drop of blood was taken from the tail, and a blood smear was prepared, fixed with methanol, and stained with Giemsa. The operator then examined the stained smear microscopically to determine percent parasitemia. […] In this model, animals were inoculated exactly as for the 4 day test on day 0; however, drug was administered only on day 1, whereas smears were made on day 5 and again weekly thereafter for animals that remained aparasitemic. Animals that remained aparasitemic on day 30 were scored as cures.
The P. yoelii 4 day test monitors suppression of patent infection in female CF1 mice. The test began with the inoculation (iv) of parasitized erythrocytes (3.5 × 10^4P. yoelli) (from a donor animal) on the first day of the experiment (D0). […] Initially, the 3-biaryl-ELQs were tested at doses of 0.0025, 0.005, 0.01, 0.03, 0.1, 0.3, 1.0, and 10 mg/kg/day, including a vehicle-only (PEG400) control. After completion of drug treatment, a blood sample was collected (by pricking the tail vein) for determination of parasite burden beginning on the day after the final dose (D5). Percent parasitemia was assessed by direct microscopic analysis of Giemsa-stained blood smears. […] Animals with observable parasitemia following the experiment were euthanized; animals cleared of parasites from the bloodstream were observed daily with assessment of parasitemia performed weekly until day 30, at which point the animals were scored as cured of infection. […] Nonlinear regression analysis was used for objective determination of ED50’s and ED90’s from the accumulated data as well as the nonrecrudescence dose (NRD). The 4 day test protocol was reviewed and approved by the local IACUC board at the Portland VA Medical Center. Experiments were performed with four mice per group to ensure statistical accuracy.

[6] = tested on: P. falciparum atovaquone-resistant clinical isolate Tm90-C2B; experiment: SYBR Green I antiplasmodial assay, Tm90-C2B; type: cell-based; conditions: Plasmodium falciparum, TM90, 72 h, read-out: P. falciparum IC50 values, Tm90-C2B
Protocol: as §3, §4, §5

[7] = Pharmacokinetics after single dose of ELQ-598; type: in vivo; conditions: for k el / Tmax / AUC(0-inf) / Cmax / half-life: mouse plasma; for bioavailability: read-out: F (oral bioavailability); for Vd / CL/F / Vdarea/F / AUCratio (molar AUC ELQ-598/AUC ELQ-596): mouse; for Vd: read-out: Vdss
Protocol: Animals had free access to food and water during the study. Following drug administration, the animals were manually restrained at the designated time points, and 100 μL of blood was withdrawn from the facial vein for semiserial sampling into heparinized tubes. Blood samples were placed on ice and centrifuged (2000g, 5 min, 4 °C) to obtain plasma. The plasma was mixed with 10% formic acid (FA) in water [plasma/10% FA (v/v = 10:1)]. […] At the outset of the study, 18 animals were randomly separated into two different groups (po and iv) of nine animals each. Blood samples were taken from three animals at each time point such that the same group of the animals was sampled at […] throughout the experiment for both po and iv arms. […] Dichlofenac was used as an internal standard.
MW is the molecular weight. The terminal elimination rate constant kel was estimated by linear least-squares regression analysis of the terminal log-linear portion of the plasma concentration–time curves by the software.

[8] = Metabolic stability in liver microsomes, rat; type: in vitro ADME; conditions: for half-life at 1 μM: rat, pH 7.4
[9] = target: human liver cytochrome bc1 complex (Homo sapiens, UniProt P00156); experiment: Human cytochrome bc1 assay (liver mitochondrial preparation)
Protocol: All use of human tissue was approved by the OHSU IRB. Approximately 10 g of human liver tissue was obtained intraoperatively and placed in ice-cold PBS containing 5 mM glucose. [Note: The specimen was obtained from grossly normal tissue that was resected around the margins of a tumor as part of the standard surgical treatment for hepatic tumors.] Liver was homogenized using a razor blade followed by a Dounce homogenizer. HALT Protease Inhibitor Cocktail (Pierce) was added per the manufacturer’s instructions. A crude mitochondrial fraction was prepared by differential centrifugation as described in Renault et al.[35] The final pellet was resuspended in storage buffer (50 mM tricine, 100 mM KCl, 2 mM NaN, 2.0% dodecyl-beta-D-maltoside, 30% glycerol, pH 8.0). Aliquots of this mitochondrial preparation were frozen in a dry ice–ethanol bath and stored at −80 °C until use.
Two microliters of mitochondrial preparation was resuspended in the assay buffer (50 mM tricine, 100 mM KCl, 2 mM NaN3, 0.1% dodecyl-beta-D-maltoside). […] Antimycin A was dissolved in ethanol as a 1 mM stock. Decylubiquinone was reduced to decylubiquinol with an excess of NaBH4, and the excess NaBH4 was subsequently quenched with hydrochloric acid. […] The rate of the nonenzymatic reaction of cytochrome c and decylubiquinol was measured separately in the absence of mitochondrial preparation and found to be insignificant. […]

[10] = tested on: P. falciparum drug-sensitive D6 strain; experiment: SYBR Green I antiplasmodial assay, D6 strain; type: cell-based; conditions: Plasmodium falciparum, D6, 72 h, read-out: P. falciparum IC50 values, D6
Protocol: as §3, §4, §5

[11] = tested on: P. yoelii blood-stage infection; experiment: Single-dose cure of blood-stage murine malaria; type: in vivo, Plasmodium yoelii
Protocol: as §6
The effectiveness of selected 3-biaryl ELQs and prodrugs was assessed vs the blood-stage infection for single-dose cures. Mice were infected iv with 3.5 × 10^4P. yoelii infected RBCs as described for the 4 day test above. Drug administration occurred on the day after inoculation (day 1). Test agents were dissolved in PEG-400 and administered ig once. On the fifth day, blood films were prepared, and % parasitemia was assessed. Animals remaining parasite-free for 30 days after drug administration were considered cured. The initial dosing range was 0.25, 0.5, 1, 3, and 10 mg/kg, including a control. Experiments were performed with four mice per group to ensure statistical accuracy. The reported parameter for these studies is the lowest single dose that provides a cure to all four animals in the group.

[12] = tested on: P. yoelii sporozoites (liver stage); experiment: Causal prophylaxis, sporozoite challenge in mice; conditions: 1.0 mg/kg single oral dose 1 h after 10,000 P. yoelii sporozoites iv; followed 30 days
Protocol: For this study, mice were inoculated with 10,000 P. yoelii sporozoites via tail vein injections, and drug was administered by gavage an hour later and only once. We monitored for the presence of blood-stage parasites as a measure of liver-stage infection.
Mice were inoculated with 10,000 sporozoites via tail vein injection of CF1 mice treated with or without drug (dissolved in PEG400) 1 h after inoculation. […] Additional monitoring for blood-stage infection was continued for a 30 day period to confirm true causal prophylaxis against P. yoelii challenge. […] Testing involved the use of four animals per group for statistical accuracy. […] A minimum of 5000 red blood cells were examined to establish blood-stage infection. Blood smears were fixed with methanol, stained with Giemsa, and viewed under oil immersion at 1000× magnification under standard light microscopy.

[13] = tested on: P. falciparum ELQ-300-resistant D1 clone; experiment: microbe, parasite or virus in culture; type: cell-based; conditions: Plasmodium falciparum, 72 h, read-out: P. falciparum IC50 values, D1
[14] = male, CD1, mouse, plasma, po, 10 mg/kg, single ELQ-598 dose 10 mg/kg PO (PEG400), read-out: Tmax
[15] = male, CD1, mouse, plasma, po, 10 mg/kg
[16] = male, CD1, plasma, single ELQ-598 dose 0.3 mg/kg IV
[17] = male, CD1, plasma, single ELQ-598 dose 10 mg/kg PO, read-out: CL/F (converted)
[18] = male, CD1, single ELQ-598 dose 0.3 mg/kg IV
[19] = male, CD1, single ELQ-598 dose 0.3 mg/kg IV, elimination
[20] = male, CD1, single ELQ-598 dose 10 mg/kg PO
[21] = male, CD1, single ELQ-598 dose 10 mg/kg PO (PEG400)
[22] = male, CD1, single ELQ-598 dose 10 mg/kg PO, apparent elimination
[23] = single ELQ-598 dose 0.3 mg/kg IV
[24] = single ELQ-598 dose 10 mg/kg PO
[25] = pH 7.4, predicted intrinsic clearance

COc1cc2[nH]c(C)c(-c3ccc(-c4ccc(OC(F)(F)F)cc4)cc3)c(=O)c2cc1Cl [ELQ-596, 6-Chloro-7-methoxy-2-methyl-3-(4′-(trifluoromethoxy)-[1,1′-biphenyl]-4-yl)quinolin-4(1H)-one]
half-life at 1 μM [1]: > 66.7 h | half-life at 1 μM [2]: > 66.7 h | IC50 [3]: 1.6 nM | EC50 at 24 h [4]: > 10000 nM | IC50 at 24 h [4]: > 10000 nM | blood stage in vivo efficacy, 4 day Peters test results, NRD (nonrecrudescence dose) [5]: 0.3 mg/kg/day | blood stage in vivo efficacy, 4 day Peters test results, ED50 [5]: 0.01 mg/kg/day | blood stage in vivo efficacy, 4 day Peters test results, ED90 [5]: 0.021 mg/kg/day | IC50 [6]: 0.7 nM | k el ([7]; male, CD1, in vivo, single ELQ-598 dose 0.3 mg/kg IV): 6.94e-06 s⁻¹ | k el ([7]; male, CD1, in vivo, single ELQ-598 dose 10 mg/kg PO (PEG400)): 4.17e-06 s⁻¹ | Tmax ([7]; male, CD1, mouse, plasma, iv, 0.3 mg/kg, single ELQ-598 dose 0.3 mg/kg IV, read-out: Tmax): 4 h | Tmax [7, 14]: 4 h | bioavailability [7, 15]: 73% | Vd [7, 16]: 0.78 L/kg | CL/F [7, 17]: 0.283 mL/min/kg | AUC(0-inf) [7, 18]: 12200 ng·h/mL | Cmax [7, 18]: 303 ng/mL | half-life [7, 19]: 27.4 h | AUC(0-inf) [7, 20]: 484000 ng·h/mL | Cmax [7, 20]: 14.5 µM | Cmax [7, 21]: 6680 ng/mL | half-life [7, 22]: 45.7 h | Tmax ([7]; single ELQ-598 dose 0.3 mg/kg IV, 0.3 mg/kg): 2 h | CL/F [7, 23]: 0.333 mL/min/kg | Vdarea/F [7, 23]: 0.81 L/kg | Vdarea/F [7, 24]: 1.11 L/kg | half-life at 1 μM [8]: > 66.7 h | EC50 [9]: > 10000 nM | IC50 [10]: 1.4 nM

CCOC(=O)OCOc1c(-c2ccc(-c3ccc(OC(F)(F)F)cc3)cc2)c(C)nc2cc(OC)c(Cl)cc12 [ELQ-598, (((6-Chloro-7-methoxy-2-methyl-3-(4′-(trifluoromethoxy)-[1,1′-biphenyl]-4-yl)quinolin-4-yl)oxy)methylethyl carbonate]
animals protected by single dose ([11]; 0.25 mg/kg single oral dose, four mice): two of four | effectiveness as single dose cure agent compared to ELQ-331 ([11]; blood-stage P. yoelii in mice): ~10 times | blood stage in vivo efficacy, single dose cure ([11]; lowest single oral dose curing all four mice, day 30): 0.3 mg/kg/day | lowest fully protective single dose cure ([11]; single oral dose day 1, aparasitemic day 30, four mice, parent-drug equivalent): 0.3 mg/kg | IC50 [3]: 4.4 nM | IC50 at 24 h ([4]; HepG2 cells): > 10000 nM | liver stage in vivo, # mice protected/total [12]: complete protection and 4/4 | appearance, behavioral, or weight changes after dosing ([5]; in vivo): no appearance, behavioral, or weight changes observed | blood stage in vivo efficacy, 4 day Peters test results, NRD (nonrecrudescence dose) [5]: 0.12 mg/kg/day | blood stage in vivo efficacy, 4 day Peters test results, ED50 [5]: 0.005 mg/kg/day | blood stage in vivo efficacy, 4 day Peters test results, ED90 [5]: 0.0065 mg/kg/day | IC50 [6]: 0.8 nM | Tmax [7, 14]: ≤ 2 h | bioavailability [7, 15]: 0.26% | Vd [7, 16]: 0.09 L/kg | CL/F [7, 17]: 398 mL/min/kg | AUC(0-inf) [7, 18]: 757 ng·h/mL | k el [7, 18]: 0.000258 s⁻¹ | half-life [7, 19]: 0.74 h | AUC(0-inf) [7, 20]: 419 ng·h/mL | Cmax [7, 21]: 79.4 ng/mL | k el [7, 21]: 3.89e-05 s⁻¹ | half-life [7, 22]: 5 h | AUCratio (molar AUC ELQ-598/AUC ELQ-596) [7, 23]: 5.1% | CL/F [7, 23]: 6.67 mL/min/kg | Vdarea/F [7, 23]: 0.42 L/kg | AUCratio (molar AUC ELQ-598/AUC ELQ-596) [7, 24]: 0.07% | Vdarea/F [7, 24]: 173.5 L/kg | IC50 [13]: 734 nM | IC50 [10]: 1.5 nM

O=C(c1ccc(F)cc1)C1CCN(CCn2c(=O)[nH]c3ccccc3c2=O)CC1 [ketanserin]
half-life at 1 μM [1]: 0.455 h | CLint scaled at 1 μM [1, 25]: 63.7 mL/min/kg | half-life at 1 μM [2]: 0.318 h | CLint scaled at 1 μM ([2]; mouse liver microsomes, predicted intrinsic clearance): 286 mL/min/kg | CLint scaled at 1 μM [8, 25]: 172 mL/min/kg | half-life at 1 μM [8]: 0.24 h

From publication PMC11245370, “3-Position Biaryl Endochin-like Quinolones with Enhanced Antimalarial Performance” (ACS Infectious Diseases, 2024)
